Measured values reported in patent publication US11345712B2, “Protein-targeting compounds and pharmaceutical compositions thereof, and their therapeutic applications” (BioTheryX, Inc., priority 2019, dated 2022).

Tested on: MOLM-13 cells
Test: MOLM-13 cell viability assay (CellTiter-Glo)
Assay type: cell-based
Settings: Homo sapiens, MOLM-13, 72 h, 3 days, concentration of 1 μM, read-out: Antiproliferative Activity (inhibition, MOLM-13 cell viability)
How it was run: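 Luminescent ATP read-out (CellTiter-Glo, 10 min with shaking) after 3-day compound or DMSO exposure at 37° C, 5% CO2. Cells plated at 2,500/well in RPMI 1640 plus 10% FBS.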

SMILES | cytotoxicity at 1 µM
Cc1ccc(C(=O)C(=O)NCc2ccc3c(c2)CN(C2CCC(=O)NC2=O)C3=O)cc1Cl (centres unmarked) [Compound I-53, 2-(3-chloro-4-methylphenyl)-N-((2-(2,6-dioxopiperidin-3-yl)-1-oxoisoindolin-5-yl)methyl)-2-oxoacetamide] | > 80%
CC(C)c1cc(NC(=O)NCc2cc3c(s2)C(=O)N(C2CCC(=O)NC2=O)C3)cc(N(C)C)c1 (centres unmarked) [II-60, 1-(3-(dimethylamino)-5-isopropylphenyl)-3-((5-(2,6-dioxopiperidin-3-yl)-6-oxo-5,6-dihydro-4H-thieno[2,3-c]pyrrol-2-yl)methyl)urea] | > 80%
Cc1cc(NC(=O)NCc2cc3c(s2)C(=O)N(C2CCC(=O)NC2=O)C3)ccc1N(C)C (centres unmarked) [II-59, 1-(4-(dimethylamino)-3-methylphenyl)-3-((5-(2,6-dioxopiperidin-3-yl)-6-oxo-5,6-dihydro-4H-thieno[2,3-c]pyrrol-2-yl)methyl)urea] | < 25%
CC(C)(C)c1ccc(C(=O)C(=O)NCc2cccc3c2C(=O)N(C2CCC(=O)NC2=O)C3=O)cc1 (centres unmarked) [Compound I-48, 2-(4-(tert-butyl)phenyl)-N-((2-(2,6-dioxopiperidin-3-yl)-1,3-dioxoisoindolin-4-yl)methyl)-2-oxoacetamide] | < 25%
CC(C)(C)c1ccc(CS(=O)(=O)NCc2scc3c2CN(C2CCC(=O)NC2=O)C3=O)cc1 (centres unmarked) [II-128, 1-(4-(tert-butyl)phenyl)-N-((5-(2,6-dioxopiperidin-3-yl)-4-oxo-5,6-dihydro-4H-thieno[3,4-c]pyrrol-1-yl)methyl)methanesulfonamide] | > 80%
O=C1CCC(N2Cc3c(CNC(=O)C(=O)c4cccc(Cl)c4)cccc3C2=O)C(=O)N1 (centres unmarked) [Compound I-88, 2-(3-chlorophenyl)-N-((2-(2,6-dioxopiperidin-3-yl)-1-oxoisoindolin-4-yl)methyl)-2-oxoacetamide] | < 25%
O=C1CCC(N2Cc3c(csc3CNC(=O)C(F)(F)c3ccc(C4(C(F)(F)F)CC4)cc3)C2=O)C(=O)N1 (centres unmarked) [II-165, N-((5-(2,6-Dioxopiperidin-3-yl)-4-oxo-5,6-dihydro-4H-thieno[3,4-c]pyrrol-1-yl)methyl)-2,2-difluoro-2-(4-(1-(trifluoromethyl)cyclopropyl)phenyl)acetamide] | < 25%
COc1cccc(C(=O)C(=O)NCc2cccc3c2CN(C2CCC(=O)NC2=O)C3=O)c1 (centres unmarked) [Compound I-94, 2-(3-methoxyphenyl)-N-((2-(2,6-dioxopiperidin-3-yl)-1-oxoisoindolin-4-yl)methyl)-2-oxoacetamide] | < 25%
Cc1ccc(C(=O)C(=O)NCc2cccc3c2CN(C2CCC(=O)NC2=O)C3=O)cc1 (centres unmarked) [Compound I-72, N-((2-(2,6-dioxopiperidin-3-yl)-1-oxoisoindolin-4-yl)methyl)-2-oxo-2-(p-tolyl)acetamide] | < 25%
Cc1ccc(NCCCNCc2scc3c2CN(C2CCC(=O)NC2=O)C3=O)cc1Cl (centres unmarked) [II-23, 3-(1-(((3-((3-chloro-4-methylphenyl)amino)propyl)amino)methyl)-4-oxo-4H-thieno[3,4-c]pyrrol-5(6H)-yl)piperidine-2,6-dione] | < 25%
CC(C)(C)c1ccc(C2(C(=O)NCc3scc4c3CN(C3CCC(=O)NC3=O)C4=O)CC2)cc1 (centres unmarked) [II-127, 1-(4-(tert-butyl)phenyl)-N-((5-(2,6-dioxopiperidin-3-yl)-4-oxo-5,6-dihydro-4H-thieno[3,4-c]pyrrol-1-yl)methyl)cyclopropane-1-carboxamide] | 25 to 50%
Cc1ccc(C(N)C(=O)NCc2scc3c2CN(C2CCC(=O)NC2=O)C3=O)cc1 (centres unmarked) [II-88, 2-amino-N-((5-(2,6-dioxopiperidin-3-yl)-4-oxo-5,6-dihydro-4H-thieno[3,4-c]pyrrol-1-yl)methyl)-2-(p-tolyl)acetamide] | < 25%
Cc1cc(C(=O)C(=O)NCc2scc3c2CN(C2CCC(=O)NC2=O)C3=O)ccc1C(C)(C)C (centres unmarked) [Compound I-27, 2-(3-methyl-4-(tert-butyl)phenyl)-N-((5-(2,6-dioxopiperidin-3-yl)-4-oxo-5,6-dihydro-4H-thieno[3,4-c]pyrrol-1-yl)methyl)-2-oxoacetamide] | > 80%
Cc1ccc(NC(=O)NCc2cc3c(s2)C(=O)N(C2CC(=O)NC2=O)C3)cc1Cl (centres unmarked) [II-72, 1-(3-chloro-4-methylphenyl)-3-((5-(2,5-dioxopyrrolidin-3-yl)-6-oxo-5,6-dihydro-4H-thieno[2,3-c]pyrrol-2-yl)methyl)urea] | 25 to 50%
CC(C)(C)c1ccc(C(=O)C(=O)NCc2csc3c2CN(C2CCC(=O)NC2=O)C3=O)cc1 (centres unmarked) [Compound I-39, 2-(4-(tert-butyl)phenyl)-N-((5-(2,6-dioxopiperidin-3-yl)-6-oxo-5,6-dihydro-4H-thieno[2,3-c]pyrrol-3-yl)methyl)-2-oxoacetamide] | > 80%
CC(C)c1ccc(C(=O)C(=O)NCc2cccc3c2CN(C2CCC(=O)NC2=O)C3=O)s1 (centres unmarked) [Compound I-59, N-((2-(2,6-dioxopiperidin-3-yl)-1-oxoisoindolin-4-yl)methyl)-2-(5-isopropylthiophen-2-yl)-2-oxoacetamide] | 25 to 50%
CN(C)c1cc(NC(=O)NCc2cc3c(s2)C(=O)N(C2CCC(=O)NC2=O)C3)cc(C(F)(F)F)c1 (centres unmarked) [II-50, 1-(3-(dimethylamino)-5-(trifluoromethyl)phenyl)-3-((5-(2,6-dioxopiperidin-3-yl)-6-oxo-5,6-dihydro-4H-thieno[2,3-c]pyrrol-2-yl)methyl)urea] | > 80%
